Test results: patent US10125126B2, “N-cycloalkyl-N-[(heterocyclylphenyl)methylene]-(thio)carboxamide derivatives” (BAYER CROPSCIENCE AG, priority 2012, dated 2018)

What was measured:
[1] = log P by HPLC on a reversed-phase column (C 18), EEC Directive 79/831 Annex V.A8; format: physicochemical; details: logP
Procedure, shortened: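 Gradient elution (10% to 90% acetonitrile, 0.1% aqueous formic acid) at 40° C; log P interpolated linearly between flanking alkan-2-one standards (3 to 16 carbons).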

[2] = system: Puccinia recondita; assay: In vivo preventive test on Puccinia recondita (brown rust on wheat); details: 500 ppm of active ingredient; wheat plants; 12 days after contamination
Procedure, shortened: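 Wheat plants ("Scipion") at 1-leaf stage, grown at 22° C, were sprayed with compound, then inoculated 24 h later with Puccinia recondita spores (100 000 spores per mL). Efficacy (%) graded 12 days after inoculation relative to solvent-treated controls.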

[3] = system: Leptosphaeria nodorum; assay: In vivo preventive test on Leptosphaeria nodorum (wheat); details: 500 ppm of active ingredient, evaluated 8 days after inoculation
Procedure: In Vivo Preventive Test on Leptosphaeria nodorum Test (Wheat) [table] To produce a suitable preparation of active compound, 1 part by weight of active compound or active compound combination is mixed with the stated amounts of solvent and emulsifier, and the concentrate is diluted with water to the desired concentration. To test for preventive activity, young plants are sprayed with the preparation of active compound or active compound combination at the stated rate of application. After the spray coating has been dried, the plants are sprayed with a spore suspension of Leptosphaeria nodorum. The plants remain for 48 hours in an incubation cabinet at approximately 20° C. and a relative atmospheric humidity of approximately 100%.

- chromatographic logP [1]: 5.17
SMILES: CC(C)c1ccc(-c2csc3ccccc23)cc1CN(C(=O)c1c(C(F)F)nn(C)c1F)C1CC1 [I.157, N-[5-(1-benzothiophen-3-yl)-2-isopropylbenzyl]-N-cyclopropyl-3-(difluoromethyl)-5-fluoro-1-methyl-1H-pyrazole-4-carboxamide]
- Efficacy [2]: 98%
- Efficacy [3]: 100%
